Measured values from patent US20030086923A1, “Method for the prevention and/or treatment of atherosclerosis” (priority 1999, published 2003).

How the values were obtained:
[1] = biological target: T1, human GST-LXRβ ligand binding domain receptor (Homo sapiens, UniProt P55055); assay: Radioligand competition binding scintillation proximity assay, LXRβ
T1 construct: human LXRβ (amino acids 149-455) were subcloned into the pGEX-KT expression vector; made in house; host or cells: E. coli (pGEX-KT vector)
T1 sequence (P55055 149-455): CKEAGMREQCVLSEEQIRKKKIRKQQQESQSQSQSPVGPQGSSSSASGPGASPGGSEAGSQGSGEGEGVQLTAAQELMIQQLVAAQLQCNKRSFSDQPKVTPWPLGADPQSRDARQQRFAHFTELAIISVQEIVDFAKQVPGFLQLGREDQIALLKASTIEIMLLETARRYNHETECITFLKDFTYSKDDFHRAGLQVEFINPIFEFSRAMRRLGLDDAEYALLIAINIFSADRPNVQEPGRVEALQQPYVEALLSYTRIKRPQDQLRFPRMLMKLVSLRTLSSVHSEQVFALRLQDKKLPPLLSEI
Excerpt: Radioligand Competition Binding Scintillation Proximity Assays:
Preparation of Recombinant Human LXRα and LXRβ:
Human LXRα and LXRβ were expressed as GST-fusion proteins in E. coli. The ligand binding domain cDNAs for human LXRα (amino acids 164-447) and human LXRβ (amino acids 149-455) were subcloned into the pGEX-KT expression vector (Pharmacia). E. coli containing the respective plasmids were propagated, induced, and harvested by centrifugation. The resuspended pellet was broken in a French press and debris was removed by centrifugation. Recombinant human LXR receptors were purified by affinity chromatography on glutathione sepharose and receptor was eluted with glutathione. Glycerol was added to a final concentration of 50% to stabilize the receptor and aliquots were stored at −80° C.
After incubation for ˜16 h at 15° C. with shaking, the assay plates were counted in a Packard Topcount.

human PPARγ = biological target: T2, human PPARγ (Homo sapiens, UniProt P37231); assay: PPARγ competition binding assay
T2 sequence (P37231 1-505): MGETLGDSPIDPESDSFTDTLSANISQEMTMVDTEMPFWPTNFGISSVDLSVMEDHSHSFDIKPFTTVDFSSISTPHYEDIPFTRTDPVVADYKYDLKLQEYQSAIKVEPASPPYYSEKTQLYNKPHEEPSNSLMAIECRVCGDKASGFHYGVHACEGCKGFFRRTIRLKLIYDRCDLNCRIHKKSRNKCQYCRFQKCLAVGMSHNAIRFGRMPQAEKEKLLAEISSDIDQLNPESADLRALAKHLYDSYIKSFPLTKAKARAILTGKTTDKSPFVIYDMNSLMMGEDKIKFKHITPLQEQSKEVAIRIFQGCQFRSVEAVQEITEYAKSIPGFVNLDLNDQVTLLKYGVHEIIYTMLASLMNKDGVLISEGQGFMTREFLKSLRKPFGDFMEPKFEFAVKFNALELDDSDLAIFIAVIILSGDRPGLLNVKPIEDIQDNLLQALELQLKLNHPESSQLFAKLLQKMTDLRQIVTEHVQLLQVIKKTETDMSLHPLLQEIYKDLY
Excerpt: (§1) The term ligand throughout this application should be understood to include an agonist, partial agonist or antagonist of LXR. The ligand may be selective for LXRα or LXRβ, or it may have mixed binding affinity for both LXRα and LXRβ. Particularly, compounds within the scope of this invention include those which have greater selectivity as determined by binding affinity for LXRα and/or LXRβ receptors than they have for each of the PPARα, γ and δ receptors.

[2] = system: cholesterol-loaded THP-1 macrophages; assay: Stimulation of cholesterol efflux from cholesterol-loaded THP-1 macrophages; type: cell-based, human; details: 1 μM, 24 hours, mean±SEM
Excerpt: Stimulation of Cholesterol Efflux from Cholesterol-Loaded Cells
To determine if LXR agonists could increase cholesterol efflux in cells that were loaded with excess cholesterol, THP-1 cells were loaded with cholesterol using acetylated LDL prior to the assay of cholesterol efflux Specifically, cultured human THP-1 cells were stimulated to differentiate into macrophages as described above. After differentiation, the THP-1 macrophages were loaded with cholesterol and simultaneously labeled with ^3H-cholesterol using acetylated LDL containing ^3H-cholesterol essentially as described by Kritharides et al. (1998) Arterioscler Thromb Vasc Biol. 18:1589-1599. After 24 hours of incubation with 100 μg/ml of acetylated LDL labelled with ^3H-cholesterol, the cells were incubated in Complete RPMI medium containing 0.1% lipid-free BSA for 24 hours to allow for equilibration of cellular cholesterol pools. Cholesterol efflux was then measured over the following 24 hours by incubating the cells in Complete RPMI medium with either apoA-I or HDL as cholesterol acceptor, and with either 1 μM Compound 1 or DMSO as control.

human PPARδ = biological target: T3, human PPARδ (Homo sapiens, UniProt Q03181); assay: PPARδ competition binding assay
T3 sequence (Q03181 1-441): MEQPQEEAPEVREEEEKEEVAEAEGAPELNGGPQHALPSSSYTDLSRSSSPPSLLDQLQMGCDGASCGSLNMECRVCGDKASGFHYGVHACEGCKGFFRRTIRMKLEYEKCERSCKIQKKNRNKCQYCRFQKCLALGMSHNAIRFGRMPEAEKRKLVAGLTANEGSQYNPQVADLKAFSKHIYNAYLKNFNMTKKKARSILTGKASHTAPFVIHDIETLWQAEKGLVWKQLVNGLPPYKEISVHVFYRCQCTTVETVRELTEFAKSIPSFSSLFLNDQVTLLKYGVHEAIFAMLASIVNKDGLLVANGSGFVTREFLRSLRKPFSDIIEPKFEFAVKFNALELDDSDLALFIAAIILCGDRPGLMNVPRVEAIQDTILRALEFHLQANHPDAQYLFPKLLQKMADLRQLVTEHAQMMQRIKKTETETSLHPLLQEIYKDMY
Excerpt: as §1

IC50 [1]: 40 nM | Ki ([1]; read-out: LXRβ calculated Ki): ~14 nM | IC50 (human PPARγ): > 10000 nM | IC50 (human PPARδ): > 10000 nM
Compound: CC(=O)Oc1ccc2c(c1)[C@@]1(C)CCC[C@](C)(C(=O)OC(=O)[C@@]3(C)CCC[C@]4(C)c5cc(OC(C)=O)ccc5CC[C@@H]34)[C@@H]1CC2 [Compound 1]
Cholesterol efflux (% of cell contents) ([2]; acceptor 10 μg/ml apoA-I, DMSO control 6.4 ± 0.3): 10.3 ± 0.4 % of cell contents | Cholesterol efflux (% of cell contents) ([2]; acceptor 25 μg/ml HDL, DMSO control 14.9 ± 0.5): 18.6 ± 0.7 % of cell contents
